We go through nine molecules from US9499550B2 (BRISTOL-MYERS SQUIBB COMPANY, priority 2012, dated 2016).

Experiment [1] concerns HCV genotype 1a (H77 strain) replicon in HUH-7 cells. Briefly: HCV replicon luciferase reporter assay, genotype 1a. The note with it: HCV genotype 1a replicon luciferase, 3 days incubation, read-out: LE_1a (EC50, range). It counts as cell-based. In a few lines: (§1)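 Replicon inhibition for both genotypes was measured as Renilla luciferase signal (EnduRen, 7.5 μM final, 2 h) after 3-day, 37° C exposure of replicon-bearing HUH-7 cells in 4% FCS DMEM, 0.5% DMSO. The 1b construct carries S1179I; the 1a H77 construct carries P1496L and S2204I. Twenty-point, 3-fold dilutions were fitted four-parametrically for EC50, and CC50 was taken from multiplexed Cell Titer-Blue.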
Background: Replicon systems follow genome replication, usually without infectious particles.

Experiment [2] deals with HCV genotype 1b (Con1) replicon in HUH-7 cells. Briefly: HCV replicon luciferase reporter assay, genotype 1b. The class given is cell-based. The note with it: HCV genotype 1b replicon luciferase, 3 days incubation, read-out: LE_1b (EC50, range). Put shortly:
as §1

Where two headings read alike, the source gives them in different places.

With `CCOc1ccc2c(O[C@@H]3C[C@H]4C(=O)N[C@]5(C(=O)NS(=O)(=O)C6(C)CC6)C[C@H]5/C=C\CC[C@@H](C)C[C@@H](CC)[C@H](NC(=O)OC(C)(C)C(C)(F)F)C(=O)N4C3)nccc2c1` [Compound 5371, 3,3-difluoro-2-methylbutan-2-yl((2R,6S,7R,9R,13aS,14aR,16aS,Z)-2-((6-ethoxyisoquinolin-1-yl)oxy)-7-ethyl-9-methyl-14a-(((1-methylcyclopropyl)sulfonyl)carbamoyl)-5,16-dioxo-1,2,3,5,6,7,8,9,10,11,13a,14,14a,15,16,16a-hexadecahydrocyclopropa[e]pyrrolo[1,2-a][1,4]diazacyclopentadecin-6-yl)carbamate], the EC50 (in general, the concentration at which the effect is half-maximal) in experiment [1] (Hepatitis C virus, Huh-7, 72 h) lay within 1.01 to 5 nM; in experiment [2] (Hepatitis C virus, Huh-7, 72 h), 0.51 to 1 nM.

For `CCOc1ccc2c(O[C@@H]3C[C@H]4C(=O)N[C@]5(C(=O)NS(=O)(=O)C6(C)CC6)C[C@H]5/C=C\CC[C@@H](C)C[C@@H](CC)[C@H](NC(=O)OC(C)(C)C)C(=O)N4C3)nccc2c1` [Compound 5373, tert-butyl ((2R,6S,7R,9R,13aS,14aR,16aS,Z)-2-((6-ethoxyisoquinolin-1-yl)oxy)-7-ethyl-9-methyl-14a-(((1-methylcyclopropyl)sulfonyl)carbamoyl)-5,16-dioxo-1,2,3,5,6,7,8,9,10,11,13a,14,14a,15,16,16a-hexadecahydrocyclopropa[e]pyrrolo[1,2-a][1,4]diazacyclopentadecin-6-yl)carbamate], the EC50 was 1.01 to 5 nM in experiment [1] (Hepatitis C virus, Huh-7, 72 h) and 0.51 to 1 nM in experiment [2] (Hepatitis C virus, Huh-7, 72 h).

`COc1cc2ccnc(O[C@@H]3C[C@H]4C(=O)N[C@]5(C(=O)NS(=O)(=O)C6(C)CC6)C[C@H]5/C=C\CC[C@@H](C)C[C@@H](C)[C@H](NC(=O)OC(C)(C)C(F)(F)F)C(=O)N4C3)c2cc1OC` [Compound 5375, 1,1,1-trifluoro-2-methylpropan-2-yl((2R,6S,7R,9R,13aS,14aR,16aS,Z)-2-((6,7-dimethoxyisoquinolin-1-yl)oxy)-7,9-dimethyl-14a-(((1-methylcyclopropyl)sulfonyl)carbamoyl)-5,16-dioxo-1,2,3,5,6,7,8,9,10,11,13a,14,14a,15,16,16a-hexadecahydrocyclopropa[e]pyrrolo[1,2-a][1,4]diazacyclopentadecin-6-yl)carbamate]: the EC50 was in the range of 1.01 to 5 nM in experiment [1] (Hepatitis C virus, Huh-7, 72 h) and 0.51 to 1 nM in experiment [2] (Hepatitis C virus, Huh-7, 72 h).

Take `COc1cc2ccnc(O[C@@H]3C[C@H]4C(=O)N[C@]5(C(=O)NS(=O)(=O)C6(C)CC6)C[C@H]5/C=C\CC[C@@H](C)C[C@@H](C)[C@H](NC(=O)OC(C)(C)C(C)(F)F)C(=O)N4C3)c2cc1OC` [Compound 5377, 3,3-difluoro-2-methylbutan-2-yl((2R,6S,7R,9R,13aS,14aR,16aS,Z)-2-((6,7-dimethoxyisoquinolin-1-yl)oxy)-7,9-dimethyl-14a-(((1-methylcyclopropyl)sulfonyl)carbamoyl)-5,16-dioxo-1,2,3,5,6,7,8,9,10,11,13a,14,14a,15,16,16a-hexadecahydrocyclopropa[e]pyrrolo[1,2-a][1,4]diazacyclopentadecin-6-yl)carbamate]: the EC50 in experiment [1] (Hepatitis C virus, Huh-7, 72 h) fell in the range of 1.01 to 5 nM; in experiment [2] (Hepatitis C virus, Huh-7, 72 h) it was 1.01 to 5 nM.

Consider `COc1cc2ccnc(O[C@@H]3C[C@H]4C(=O)N[C@]5(C(=O)NS(=O)(=O)C6(C)CC6)C[C@H]5/C=C\CC[C@@H](C)C[C@@H](C)[C@H](NC(=O)OC(C)(C)C)C(=O)N4C3)c2cc1OC` [Compound 5379, tert-butyl ((2R,6S,7R,9R,13aS,14aR,16aS,Z)-2-((6,7-dimethoxyisoquinolin-1-yl)oxy)-7,9-dimethyl-14a-(((1-methylcyclopropyl)sulfonyl)carbamoyl)-5,16-dioxo-1,2,3,5,6,7,8,9,10,11,13a,14,14a,15,16,16a-hexadecahydrocyclopropa[e]pyrrolo[1,2-a][1,4]diazacyclopentadecin-6-yl)carbamate], for which the EC50 fell in the range of 1.01 to 5 nM in experiment [1] (Hepatitis C virus, Huh-7, 72 h) and 1.01 to 5 nM in experiment [2] (Hepatitis C virus, Huh-7, 72 h).

Turning to `COc1cc2ccnc(O[C@@H]3C[C@H]4C(=O)N[C@]5(C(=O)NS(=O)(=O)C6(CF)CC6)C[C@H]5/C=C\CC[C@@H](C)C[C@@H](C)[C@H](NC(=O)OC(C)(C)C(F)(F)F)C(=O)N4C3)c2cc1OC` [Compound 5381, 1,1,1-trifluoro-2-methylpropan-2-yl((2R,6S,7R,9R,13aS,14aR,16aS,Z)-2-((6,7-dimethoxyisoquinolin-1-yl)oxy)-14a-(((1-(fluoromethyl)cyclopropyl)sulfonyl)carbamoyl)-7,9-dimethyl-5,16-dioxo-1,2,3,5,6,7,8,9,10,11,13a,14,14a,15,16,16a-hexadecahydrocyclopropa[e]pyrrolo[1,2-a][1,4]diazacyclopentadecin-6-yl)carbamate], the EC50 in experiment [1] (Hepatitis C virus, Huh-7, 72 h) is 1.01 to 5 nM; in experiment [2] (Hepatitis C virus, Huh-7, 72 h), 1.01 to 5 nM.

In the case of `COc1cc2ccnc(O[C@@H]3C[C@H]4C(=O)N[C@]5(C(=O)NS(=O)(=O)C6(CF)CC6)C[C@H]5/C=C\CC[C@@H](C)C[C@@H](C)[C@H](NC(=O)OC(C)(C)C(F)(F)F)C(=O)N4C3)c2cc1OC` [Compound 5383, 1,1,1-trifluoro-2-methylpropan-2-yl((2R,6S,7R,9R,13aS,14aR,16aS,Z)-2-((6,7-dimethoxyisoquinolin-1-yl)oxy)-14a-(((1-(fluoromethyl)cyclopropyl)sulfonyl)carbamoyl)-7,9-dimethyl-5,16-dioxo-1,2,3,5,6,7,8,9,10,11,13a,14,14a,15,16,16a-hexadecahydrocyclopropa[e]pyrrolo[1,2-a][1,4]diazacyclopentadecin-6-yl)carbamate], the EC50 fell in the range of 5.01 to 35 nM in experiment [1] and 1.01 to 5 nM in experiment [2].

As to `COc1cc2ccnc(O[C@@H]3C[C@H]4C(=O)N[C@]5(C(=O)NS(=O)(=O)C6(CF)CC6)C[C@H]5/C=C\CC[C@@H](C)C[C@@H](C)[C@H](NC(=O)OC(C)(C)C)C(=O)N4C3)c2cc1OC` [Compound 5385, tert-butyl ((2R,6S,7R,9R,13aS,14aR,16aS,Z)-2-((6,7-dimethoxyisoquinolin-1-yl)oxy)-14a-(((1-(fluoromethyl)cyclopropyl)sulfonyl)carbamoyl)-7,9-dimethyl-5,16-dioxo-1,2,3,5,6,7,8,9,10,11,13a,14,14a,15,16,16a-hexadecahydrocyclopropa[e]pyrrolo[1,2-a][1,4]diazacyclopentadecin-6-yl)carbamate], the EC50 in experiment [1] (Hepatitis C virus, Huh-7, 72 h) is 5.01 to 35 nM; in experiment [2] (Hepatitis C virus, Huh-7, 72 h), 1.01 to 5 nM.

For `COc1cc2ccnc(O[C@@H]3C[C@H]4C(=O)N[C@]5(C(=O)NS(=O)(=O)C6CC6)C[C@H]5/C=C\CC[C@@H](C)C[C@@H](C)[C@H](NC(=O)OC(C)(C)C(F)(F)F)C(=O)N4C3)c2cc1OC` [Compound 5387, 1,1,1-trifluoro-2-methylpropan-2-yl((2R,6S,7R,9R,13aS,14aR,16aS,Z)-14a-((cyclopropylsulfonyl)carbamoyl)-2-((6,7-dimethoxyisoquinolin-1-yl)oxy)-7,9-dimethyl-5,16-dioxo-1,2,3,5,6,7,8,9,10,11,13a,14,14a,15,16,16a-hexadecahydrocyclopropa[e]pyrrolo[1,2-a][1,4]diazacyclopentadecin-6-yl)carbamate], the EC50 in experiment [1] (Hepatitis C virus, Huh-7, 72 h) lay within 1.01 to 5 nM; in experiment [2] (Hepatitis C virus, Huh-7, 72 h), 1.01 to 5 nM.
